Results: patent US20260357266A1, “COMPOSITION FOR KILLING A THERAPY-INDUCED SENESCENCE (TIS) CELLS AND USES THEREOF” (AJOU UNIVERSITY INDUSTRY-ACADEMIC COOPERATION FOUNDATION, priority 2022, published 2026)

Tests used:
p21 = p21 mRNA expression after therapy-induced senescence by adriamycin; type: cell-based; conditions: 100 nM adriamycin for 48 h, then medium replaced and cultured 5 to 7 days; MCF7, ZR75-1, Hs578T, MDA-MB-231
Experimental: (§1) To generate therapy-induced senescent tumor cells, breast cancer cell lines with contrasting characteristics (MCF7 and ZR75-1, which are female hormone receptor-positive but relatively less malignant, and Hs578T and MDA-MB-231, which are hormone receptor- and HER2 receptor-negative triple-negative breast cancer cell lines and are relatively more aggressive) were each treated with 100 nM of adriamycin (Selleckhem, Catalog No. S1208, CAS 25316-40-9). After 48 hours, the cell culture medium was replaced and the cells were cultured for 5 to 7 days, thereby generating therapy-induced senescent tumor cells.

[1] = tested on: breast cancer cell lines (MCF7, ZR75-1, Hs578T, and MDA-MB-231); assay: Cell size and SA-β-gal staining after therapy-induced senescence by adriamycin; type: cell-based; conditions: 100 nM adriamycin for 48 h, then medium replaced and cultured 5 to 7 days
Experimental: as §1

[2] = tested on: various cancer cell lines (MCF7, MDA-MB 231, MKN1, HSC4, and SNU869); assay: Therapy-induced senescence by cisplatin in various cancer cell lines; type: cell-based; conditions: 10 μM cisplatin; MCF7, MDA-MB 231, MKN1, HSC4, SNU869
Experimental: (§2) In addition, in order to examine whether therapy-induced senescence (TIS) occurs even when using anticancer agents other than adriamycin, various cancer cell lines (MCF7, MDA-MB 231, MKN1, HSC4, and SNU869) were treated with 10 μM of cisplatin (Selleckhem, Catalog No. S1166 CAS 15663-27-1).

PIM-1 kinase = PIM-1 kinase mRNA/protein expression after therapy-induced senescence; type: cell-based; conditions: 10 μM cisplatin; MCF7, MDA-MB 231, MKN1, HSC4, SNU869
Text: In addition to breast cancer cell lines (MCF7 and MDA-MB231), gastric cancer (SNU601, MKN1, and MKN74), colon cancer (SW480, and Hct116), head and neck cancer (HSC4), cervical cancer (HeLa S3), cholangiocarcinoma (SNU308, SNU478, and SNU1196), pancreatic adenocarcinoma (BxPC3), and prostate cancer (PC3) cell lines were induced to senescence by treatment in the same manner as in Example 1, thereby obtaining therapy-induced senescent cells.
as §2

[3] = tested on: MCF7 control cells and TIS cells; assay: CCK8 assay and microscopy, senolytic effect on control and therapy-induced senescent (TIS) MCF7 cells; type: cell-based; conditions: for cell viability, TIS group compared to control group: CCK8, MCF7, FIG. 3b
Experimental: FIGS. 3d and 3e show the results of CCK8 assay and microscopy performed to evaluate the cell killing effect of SGI-1776 after treating MCF7 cells (Ctrl and TIS) with another PIM1 kinase inhibitor, SGI-1776 (Selleckhem, Catalog No. S2198, CAS 1025065-69-3).
Therapy-induced senescent breast cancer cells were treated with the FDA-approved inhibitors (Table 1) for the 23 genes finally selected in Example 2, the senescent cell-selective cell division inhibitory effect and senolytic effect of the drugs were evaluated by CCK8 assay (D-Plus CCK, cell viability assay kit, Cat CCK-3000, Dong-In LS) (FIG. 3A). In this case, for the control group (cancer cells without therapy-induced senescence), the measurement was made after treatment with the inhibitor at the indicated concentration for 48 hours, and for the therapy-induced senescent cell group, the cancer cells were induced to senescence by treatment with adriamycin for 48 hours as described in Example 1, and then treated with the indicator at the indicated concentration for 48 hours while replacing the culture medium, the inhibitor was treated at the indicated concentration for 48 hours, and then the measurement was made.

[4] = tested on: SNU601, HSC4, and SW480 cells (control and TIS); assay: CCK8 assay and microscopy, senolytic effect on control and TIS gastric, head and neck and colon cancer cells; type: cell-based; conditions: FIG. 5
Experimental: FIGS. 5a and 5b show the results of microscopy and CCK8 assay performed to evaluate the cell killing effect of PIM 1/2 inhibitor VI on control (Ctrl) cells and therapy-induced senescent (TIS) cells after treating cancer cell lines (HSC4: head and neck cancer, SNU601: gastric cancer, and SW480: colon cancer) with PIM 1/2 inhibitor VI.
Therapy-induced senescent breast cancer cells were treated with the FDA-approved inhibitors (Table 1) for the 23 genes finally selected in Example 2, the senescent cell-selective cell division inhibitory effect and senolytic effect of the drugs were evaluated by CCK8 assay (D-Plus CCK, cell viability assay kit, Cat CCK-3000, Dong-In LS) (FIG. 3A). […]
In order to evaluate the senolytic effect of a Pim-1 kinase inhibitor on gastric cancer (SNU601), head and neck cancer (HSC4), and colon cancer (SW480) cell lines induced to senescence by treatment, the concentration-dependent senolytic effect of the Pim-1 kinase inhibitor was evaluated in the same manner as described in Example 3.

[5] = tested on: senescent cell types, including senescent cancer cells; conditions: literature (Aging Cell 15, 428-435 (2016); Nat. Med. 22, 78-83 (2016)); cited from earlier work

What does the source list for `COc1cccc2c1C(=O)c1c(O)c3c(c(O)c1C2=O)C[C@@](O)(C(=O)CO)C[C@@H]3O[C@H]1C[C@H](N)[C@H](O)[C@H](C)O1` [adriamycin]?
mRNA expression of p21 (p21): increase significantly in each cell line; cell size [1]: the cell size of each breast cancer cell line increased; number of cells positive to SA-b-gal [1]: the number of cells positive to SA-b-gal, a senescence marker, increased

Which “occurrence of therapy-induced senescence (TIS)” value [2] does the source give for `N.N.[Cl][Pt][Cl]` [cisplatin] here?
Its value is “therapy-induced senescence (TIS) occurred”.

What about the “mRNA expression of the PIM-1 kinase gene” value (PIM-1 kinase) of the same compound?
The value was “significantly increased”.

With `CCCOc1ccc(/C=C2\SC(=O)NC2=O)cc1` [PIM1/2 kinase inhibitor VI] as the compound, how does the “cell viability, TIS group compared to control group” value [3] read?
Its value is “significantly inhibited in a therapy-induced senescent cell group compared to a control group”.

And the “selective senolytic effect on therapy-induced senescent tumor cells” value ([3]; CCK8, inhibitor 48 h, TIS by adriamycin vs control, FIG. 3A)?
The value was “exhibited a selective senolytic effect on the therapy-induced senescent tumor cells”.

What about the “killing effect on TIS cells” value ([3]; FIGS. 3B and 3C, TIS cells) of the same compound?
The value was “effectively killed the TIS cells”.

What about the “cell growth and killing of control cells” value ([3]; FIGS. 3B and 3C, control cells, high concentrations) of the same compound?
Its value is “inhibited cell growth in the control cells at high concentrations but hardly killed the control cells”.

What about the “senolytic effect on senescent cells compared with ABT-263” value ([3]; FIGS. 3B and 3C, versus ABT-263) of the same compound?
Its value is “significantly superior to that of ABT-263”.

And the “killing effect on therapy-induced senescent tumor cells compared to normal tumor cells” value ([3]; summary statement, tumor cells induced to senescence by a chemotherapeutic agent)?
The value was “a significant killing effect was observed on the therapy-induced senescent tumor cells compared to normal tumor cells”.

What about the “killing effect on therapy-induced senescent cancer cells” value ([4]; SNU601, HSC4, SW480 TIS cells) of the same compound?
Its value is “significant killing effect on the therapy-induced senescent cancer cells”.

And the “killing effect on control cells” value ([4]; SNU601, HSC4, SW480 control cells)?
Its value is “no significant killing effect on the control cells”.

Which results are given for `CC1(C)CCC(c2ccc(Cl)cc2)=C(CN2CCN(c3ccc(C(=O)NS(=O)(=O)c4ccc(N[C@H](CCN5CCOCC5)CSc5ccccc5)c(S(=O)(=O)C(F)(F)F)c4)cc3)CC2)C1` [ABT-263]?
cell viability, TIS group compared to control group [3]: significantly inhibited in a therapy-induced senescent cell group compared to a control group; killing effect on both control and TIS cells ([3]; FIGS. 3B and 3C): almost complete killing effect on both the control and TIS cells; killing effect, control vs TIS cells ([3]; FIGS. 3B and 3C, difference between control and TIS cells): significant difference between the killing effect on the control cell and the killing effect on the TIS cells; elimination of senescent cell types [5]: able to effectively eliminate a wide range of senescent cell types, including senescent cancer cells

Which “cytotoxicity to TIS cells compared to control cells” value ([3]; FIG. 3D, MCF7) does the source give for `CN1CCC(CNc2ccc3ncc(-c4cccc(OC(F)(F)F)c4)n3n2)CC1` [SGI-1776] here?
Its value is “high cytotoxicity to the TIS cells compared to the control cells”.
